Data published in US9113629B2, “4-amino-6-(4-substituted-phenyl)-picolinates and 6-amino-2-(4-substituted-phenyl)-pyrimidine-4-carboxylates and their use as herbicides” (DOW AGROSCIENCES LLC, priority 2013, dated 2015).

System: Key Grass and Sedge Weeds as well as Grass Crops
Assay: Post-emergent Test II herbicidal activity (Table 6)
Type: in vivo
Conditions: post-emergence, 336 h, CYPES: yellow nutsedge (Cyperus esculentus), 70 g ai/ha, read-out: Visual Growth Reduction (%) 14 Days After Application, CYPES
Outline: (§1)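 Greenhouse post-emergent assay: seedlings (first/second true leaf) in Metro-Mix 360 were sprayed at 187 L/ha at a top rate plus twofold dilutions down to 1/16×; solvent-blank controls were included. Percent visual injury was read at 14 d.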
In the case of C#Cc1ccc(-c2nc(C(=O)O)c(Cl)c(N)c2F)c(F)c1F [Compound 50], the pest or weed control at 70 g/ha is reported as 0 to 29%.

Same assay, conditions: post-emergence, 336 h, CYPES: yellow nutsedge (Cyperus esculentus), 140 g ai/ha, read-out: Visual Growth Reduction (%) 14 Days After Application, CYPES
For C#Cc1ccc(-c2nc(C(=O)O)c(Cl)c(N)c2F)c(F)c1F [Compound 50], the pest or weed control at 140 g/ha was 0 to 29%.

Same assay, conditions: post-emergence, 336 h, DIGSA: crabgrass (Digitaria sanguinalis), 70 g ai/ha, read-out: Visual Growth Reduction (%) 14 Days After Application, DIGSA
For C#Cc1ccc(-c2nc(C(=O)O)c(Cl)c(N)c2F)c(F)c1F [Compound 50], the pest or weed control at 70 g/ha was 0 to 29%.

Same assay, conditions: post-emergence, 336 h, DIGSA: crabgrass (Digitaria sanguinalis), 140 g ai/ha, read-out: Visual Growth Reduction (%) 14 Days After Application, DIGSA
Compound C#Cc1ccc(-c2nc(C(=O)O)c(Cl)c(N)c2F)c(F)c1F [Compound 50] has a pest or weed control at 140 g/ha of 45 to 59%.

Same assay, conditions: post-emergence, 336 h, ECHCG: barnyardgrass (Echinochloa crus-galli), 70 g ai/ha, read-out: Visual Growth Reduction (%) 14 Days After Application, ECHCG
Compound C#Cc1ccc(-c2nc(C(=O)O)c(Cl)c(N)c2F)c(F)c1F [Compound 50] has a pest or weed control at 70 g/ha of 45 to 59%.

Same assay, conditions: post-emergence, 336 h, ECHCG: barnyardgrass (Echinochloa crus-galli), 140 g ai/ha, read-out: Visual Growth Reduction (%) 14 Days After Application, ECHCG
Work on C#Cc1ccc(-c2nc(C(=O)O)c(Cl)c(N)c2F)c(F)c1F [Compound 50] yielded a pest or weed control at 140 g/ha of 75 to 84%.

Same assay, conditions: post-emergence, 336 h, ORYSA: rice (Oryza sativa), crop, 70 g ai/ha, read-out: Visual Growth Reduction (%) 14 Days After Application, ORYSA
Compound C#Cc1ccc(-c2nc(C(=O)O)c(Cl)c(N)c2F)c(F)c1F [Compound 50] has a pest or weed control at 70 g/ha of 0 to 29%.

Same assay, conditions: post-emergence, 336 h, ORYSA: rice (Oryza sativa), crop, 140 g ai/ha, read-out: Visual Growth Reduction (%) 14 Days After Application, ORYSA
For C#Cc1ccc(-c2nc(C(=O)O)c(Cl)c(N)c2F)c(F)c1F [Compound 50], the pest or weed control at 140 g/ha was 0 to 29%.

Same assay, conditions: post-emergence, 336 h, SETFA: giant foxtail (Setaria faberi), 70 g ai/ha, read-out: Visual Growth Reduction (%) 14 Days After Application, SETFA
In the case of C#Cc1ccc(-c2nc(C(=O)O)c(Cl)c(N)c2F)c(F)c1F [Compound 50], the pest or weed control at 70 g/ha is reported as 30 to 44%.

Same assay, conditions: post-emergence, 336 h, SETFA: giant foxtail (Setaria faberi), 140 g ai/ha, read-out: Visual Growth Reduction (%) 14 Days After Application, SETFA
For C#Cc1ccc(-c2nc(C(=O)O)c(Cl)c(N)c2F)c(F)c1F [Compound 50], the pest or weed control at 140 g/ha was 45 to 59%.

Same assay, conditions: post-emergence, 336 h, SORVU: grain sorghum (Sorghum vulgare), 70 g ai/ha, read-out: Visual Growth Reduction (%) 14 Days After Application, SORVU
C#Cc1ccc(-c2nc(C(=O)O)c(Cl)c(N)c2F)c(F)c1F [Compound 50] showed a pest or weed control at 70 g/ha of 0 to 29%.

Same assay, conditions: post-emergence, 336 h, SORVU: grain sorghum (Sorghum vulgare), 140 g ai/ha, read-out: Visual Growth Reduction (%) 14 Days After Application, SORVU
In the case of C#Cc1ccc(-c2nc(C(=O)O)c(Cl)c(N)c2F)c(F)c1F [Compound 50], the pest or weed control at 140 g/ha is reported as 0 to 29%.

Same assay, conditions: post-emergence, 336 h, TRZSS (wheat, Triticum aestivum), crop, 70 g ai/ha, read-out: Visual Growth Reduction (%) 14 Days After Application, TRZSS
For C#Cc1ccc(-c2nc(C(=O)O)c(Cl)c(N)c2F)c(F)c1F [Compound 50], the pest or weed control at 70 g/ha was 0 to 29%.

Same assay, conditions: post-emergence, 336 h, TRZSS (wheat, Triticum aestivum), crop, 140 g ai/ha, read-out: Visual Growth Reduction (%) 14 Days After Application, TRZSS
Compound C#Cc1ccc(-c2nc(C(=O)O)c(Cl)c(N)c2F)c(F)c1F [Compound 50] has a pest or weed control at 140 g/ha of 0 to 29%.

Same assay, conditions: post-emergence, 336 h, ZEAMX: maize, corn (Zea mays), crop, 70 g ai/ha, read-out: Visual Growth Reduction (%) 14 Days After Application, ZEAMX
Work on C#Cc1ccc(-c2nc(C(=O)O)c(Cl)c(N)c2F)c(F)c1F [Compound 50] yielded a pest or weed control at 70 g/ha of 95 to 100%.

Same assay, conditions: post-emergence, 336 h, ZEAMX: maize, corn (Zea mays), crop, 140 g ai/ha, read-out: Visual Growth Reduction (%) 14 Days After Application, ZEAMX
With C#Cc1ccc(-c2nc(C(=O)O)c(Cl)c(N)c2F)c(F)c1F [Compound 50] the pest or weed control at 140 g/ha was 95 to 100%.

System: not given
Assay: not given
Conditions: not given
C#Cc1ccc(-c2nc(C(=O)O)c(Cl)c(N)c2F)c(F)c1F [Compound 50] showed a melting point of 174 to 176 °C.

System: Key Broadleaf Weed and Crop Species
Assay: Post-emergent Test II herbicidal activity (Table 5)
Type: in vivo
Conditions: post-emergence, 336 h; ABUTH: velvetleaf (Abutilon theophrasti); application rate 70 g ai/ha; 14 days after application; read-out: Visual Growth Reduction (%) 14 Days After Application, ABUTH
Outline: as §1
With C#Cc1ccc(-c2nc(C(=O)O)c(Cl)c(N)c2F)c(F)c1F [Compound 50] the pest or weed control at 70 g/ha was 60 to 74%.

Same assay, conditions: post-emergence, 336 h; ABUTH: velvetleaf (Abutilon theophrasti); application rate 140 g ai/ha; 14 days after application; read-out: Visual Growth Reduction (%) 14 Days After Application, ABUTH
For C#Cc1ccc(-c2nc(C(=O)O)c(Cl)c(N)c2F)c(F)c1F [Compound 50], the pest or weed control at 140 g/ha was 60 to 74%.

Same assay, conditions: post-emergence, 336 h; AMARE: redroot pigweed (Amaranthus retroflexus); application rate 70 g ai/ha; 14 days after application; read-out: Visual Growth Reduction (%) 14 Days After Application, AMARE
With C#Cc1ccc(-c2nc(C(=O)O)c(Cl)c(N)c2F)c(F)c1F [Compound 50] the pest or weed control at 70 g/ha was 0 to 29%.

Same assay, conditions: post-emergence, 336 h; AMARE: redroot pigweed (Amaranthus retroflexus); application rate 140 g ai/ha; 14 days after application; read-out: Visual Growth Reduction (%) 14 Days After Application, AMARE
In the case of C#Cc1ccc(-c2nc(C(=O)O)c(Cl)c(N)c2F)c(F)c1F [Compound 50], the pest or weed control at 140 g/ha is reported as 0 to 29%.

Same assay, conditions: post-emergence, 336 h; BRSNN: oilseed-rape, canola (Brassica napus); application rate 70 g ai/ha; 14 days after application; read-out: Visual Growth Reduction (%) 14 Days After Application, BRSNN
In the case of C#Cc1ccc(-c2nc(C(=O)O)c(Cl)c(N)c2F)c(F)c1F [Compound 50], the pest or weed control at 70 g/ha is reported as 0 to 29%.

Same assay, conditions: post-emergence, 336 h; BRSNN: oilseed-rape, canola (Brassica napus); application rate 140 g ai/ha; 14 days after application; read-out: Visual Growth Reduction (%) 14 Days After Application, BRSNN
Compound C#Cc1ccc(-c2nc(C(=O)O)c(Cl)c(N)c2F)c(F)c1F [Compound 50] has a pest or weed control at 140 g/ha of 0 to 29%.

Same assay, conditions: post-emergence, 336 h; CHEAL: lambsquarters (Chenopodium album); application rate 70 g ai/ha; 14 days after application; read-out: Visual Growth Reduction (%) 14 Days After Application, CHEAL
With C#Cc1ccc(-c2nc(C(=O)O)c(Cl)c(N)c2F)c(F)c1F [Compound 50] the pest or weed control at 70 g/ha was 0 to 29%.

Same assay, conditions: post-emergence, 336 h; CHEAL: lambsquarters (Chenopodium album); application rate 140 g ai/ha; 14 days after application; read-out: Visual Growth Reduction (%) 14 Days After Application, CHEAL
Work on C#Cc1ccc(-c2nc(C(=O)O)c(Cl)c(N)c2F)c(F)c1F [Compound 50] yielded a pest or weed control at 140 g/ha of 0 to 29%.

Same assay, conditions: post-emergence, 336 h; EPHHL: wild poinsettia (Euphorbia heterophylla); application rate 70 g ai/ha; 14 days after application; read-out: Visual Growth Reduction (%) 14 Days After Application, EPHHL
C#Cc1ccc(-c2nc(C(=O)O)c(Cl)c(N)c2F)c(F)c1F [Compound 50] showed a pest or weed control at 70 g/ha of 45 to 59%.

Same assay, conditions: post-emergence, 336 h; EPHHL: wild poinsettia (Euphorbia heterophylla); application rate 140 g ai/ha; 14 days after application; read-out: Visual Growth Reduction (%) 14 Days After Application, EPHHL
In the case of C#Cc1ccc(-c2nc(C(=O)O)c(Cl)c(N)c2F)c(F)c1F [Compound 50], the pest or weed control at 140 g/ha is reported as 95 to 100%.

Same assay, conditions: post-emergence, 336 h; HELAN: sunflower (Helianthus annuus); application rate 70 g ai/ha; 14 days after application; read-out: Visual Growth Reduction (%) 14 Days After Application, HELAN
For C#Cc1ccc(-c2nc(C(=O)O)c(Cl)c(N)c2F)c(F)c1F [Compound 50], the pest or weed control at 70 g/ha was 45 to 59%.

Same assay, conditions: post-emergence, 336 h; HELAN: sunflower (Helianthus annuus); application rate 140 g ai/ha; 14 days after application; read-out: Visual Growth Reduction (%) 14 Days After Application, HELAN
C#Cc1ccc(-c2nc(C(=O)O)c(Cl)c(N)c2F)c(F)c1F [Compound 50] gave a pest or weed control at 140 g/ha of 60 to 74%.

Same assay, conditions: post-emergence, 336 h; VIOTR: wild pansy (Viola tricolor); application rate 70 g ai/ha; 14 days after application; read-out: Visual Growth Reduction (%) 14 Days After Application, VIOTR
C#Cc1ccc(-c2nc(C(=O)O)c(Cl)c(N)c2F)c(F)c1F [Compound 50] showed a pest or weed control at 70 g/ha of 0 to 29%.

Same assay, conditions: post-emergence, 336 h; VIOTR: wild pansy (Viola tricolor); application rate 140 g ai/ha; 14 days after application; read-out: Visual Growth Reduction (%) 14 Days After Application, VIOTR
For C#Cc1ccc(-c2nc(C(=O)O)c(Cl)c(N)c2F)c(F)c1F [Compound 50], the pest or weed control at 140 g/ha was 0 to 29%.
